# According to patent US10765680B2, “Combination of a MCL-1 inhibitor and a taxane compound, uses and pharmaceutical compositions thereof” (priority 2017, dated 2020):
# How the values were obtained:
# [1] = tested on: NCI-H522 lung cancer cell line; assay: 72 hours CellTiter-Glo proliferation assay, NCI-H522; type: cell-based; conditions: single agent, read-out: Abs IC50
# Procedure: (§1) Compounds were dissolved in 100% DMSO (Sigma, Catalog # D2438-50 ML) at a stock concentration of 10 mM and stored at −20° C. until use. Compounds were arrayed in 2 ml deep 96-well plates (Greiner bio-one, catalog number 780271) serially diluted 3-fold. Compound 1 was used over a concentration range of 0.0-10.0 μM. Paclitaxel was used over a concentration range of 0.0-1.0 μM in breast cancer cells and 0.0-2.0 μM range in lung cancer cells.
# (§2) All cell lines were purchased from the American Type Culture Collection and cultured according to vendor recommendations. […] All cell lines were determined to be free of mycoplasma contamination by a PCR detection assay performed at Idexx Radil (Columbia, Mo., USA) and authenticated by SNP analysis. […] Cells were expanded to T-75 flasks and assessed for viability using a Beckman-Coulter ViCell counter prior to plating. […]
# (§3) Cell proliferation was measured in 72 hours CellTiter-Glo™ (CTG) assays and all results shown are the result of at least triplicate measurements. […] After 72 hours of compound treatment the effects of compounds on cell proliferation was determined using the CellTiter-Glo™ Luminescent Cell Viability Assay (Promega, Catalog # G7573). This is a homogeneous method to determine the number of viable cells in culture based on quantitation of the ATP present, which signals the presence of metabolically active cells. […]
# [2] = tested on: MDA-MB-231 breast cancer cell line; assay: 72 hours CellTiter-Glo proliferation assay, MDA-MB-231; type: cell-based; conditions: single agent, read-out: Abs IC50
# Procedure: as §1, §2, §3
# [3] = tested on: HCC1937 breast cancer cell line; assay: 72 hours CellTiter-Glo proliferation assay, HCC1937; type: cell-based; conditions: single agent, read-out: Abs IC50
# Procedure: as §1, §2, §3
# [4] = tested on: HCC38 breast cancer cell line; assay: 72 hours CellTiter-Glo proliferation assay, HCC38; type: cell-based; conditions: single agent, read-out: Abs IC50
# Procedure: as §1, §2, §3
# [5] = tested on: SK-BR-3 breast cancer cell line; assay: 72 hours CellTiter-Glo proliferation assay, SK-BR-3; type: cell-based; conditions: single agent, read-out: Abs IC50
# Procedure: as §1, §2, §3
# [6] = tested on: MDA-MB-157 breast cancer cell line; assay: 72 hours CellTiter-Glo proliferation assay, MDA-MB-157; type: cell-based; conditions: single agent, read-out: Abs IC50
# Procedure: as §1, §2, §3
# [7] = tested on: MCF7 breast cancer cell line; assay: 72 hours CellTiter-Glo proliferation assay, MCF7; type: cell-based; conditions: single agent, read-out: Abs IC50
# Procedure: as §1, §2, §3
# [8] = tested on: MDA-MB-453 breast cancer cell line; assay: 72 hours CellTiter-Glo proliferation assay, MDA-MB-453; type: cell-based; conditions: single agent, read-out: Abs IC50
# Procedure: as §1, §2, §3
# [9] = tested on: A549 lung cancer cell line; assay: 72 hours CellTiter-Glo proliferation assay, A549; type: cell-based; conditions: single agent, read-out: Abs IC50
# Procedure: as §1, §2, §3
# [10] = tested on: HCC1143 breast cancer cell line; assay: 72 hours CellTiter-Glo proliferation assay, HCC1143; type: cell-based; conditions: single agent, read-out: Abs IC50
# Procedure: as §1, §2, §3
# [11] = tested on: HCC70 breast cancer cell line; assay: 72 hours CellTiter-Glo proliferation assay, HCC70; type: cell-based; conditions: single agent, read-out: Abs IC50
# Procedure: as §1, §2, §3
# [12] = tested on: HCC1954 breast cancer cell line; assay: 72 hours CellTiter-Glo proliferation assay, HCC1954; type: cell-based; conditions: single agent, read-out: Abs IC50
# Procedure: as §1, §2, §3
# [13] = tested on: Hs 578T breast cancer cell line; assay: 72 hours CellTiter-Glo proliferation assay, Hs 578T; type: cell-based; conditions: single agent, read-out: Abs IC50
# Procedure: as §1, §2, §3
# [14] = tested on: TNBC PDX model OD-BRE-00589; assay: TNBC PDX model OD-BRE-00589, antitumor activity; type: in vivo, female SCID mice; conditions: Compound 1 70 mg/kg iv once, liposomal formulation
# Procedure: Docetaxel was formulated in 5% ethanol, 5% PS80 and 90% Glucose at 0.67 mg/ml to administer 10 mg/kg. […] OD-BRE-00589 is a triple negative breast cancer PDX, obtained from the IMODI consortium. […] It was grafted on SCID mice as fragments of 27 mm^3 volume. […] The administrations were performed once in the caudal vein.
# [15] = tested on: MDA-MB-468 breast cancer cell line; assay: 72 hours CellTiter-Glo proliferation assay, MDA-MB-468; type: cell-based; conditions: single agent, read-out: Abs IC50
# Procedure: as §1, §2, §3
# [16] = tested on: MDA-MB-436 breast cancer cell line; assay: 72 hours CellTiter-Glo proliferation assay, MDA-MB-436; type: cell-based; conditions: single agent, read-out: Abs IC50
# Procedure: as §1, §2, §3
# [17] = tested on: NCI-H23 lung cancer cell line; assay: 72 hours CellTiter-Glo proliferation assay, NCI-H23; type: cell-based; conditions: single agent, read-out: Abs IC50
# Procedure: as §1, §2, §3
# [18] = tested on: HCC1395 breast cancer cell line; assay: 72 hours CellTiter-Glo proliferation assay, HCC1395; type: cell-based; conditions: single agent, read-out: Abs IC50
# Procedure: as §1, §2, §3
# [19] = tested on: HCC1500 breast cancer cell line; assay: 72 hours CellTiter-Glo proliferation assay, HCC1500; type: cell-based; conditions: single agent, read-out: Abs IC50
# Procedure: as §1, §2, §3
smiles,measurement,setting,value
"COc1ccccc1-c1nccc(COc2ccccc2C[C@@H](Oc2ncnc3sc(-c4ccc(F)cc4)c(-c4ccc(OCCN5CCN(C)CC5)c(Cl)c4C)c23)C(=O)O)n1 [Compound 1, (2R)-2-{[(5Sa)-5-{3-chloro-2-methyl-4-[2-(4-methylpiperazin-1-yl)ethoxy]phenyl}-6-(4-fluorophenyl)thieno[2,3-d]pyrimidin-4-yl]oxy}-3-(2-{[2-(2-methoxyphenyl)pyrimidin-4-yl]methoxy}phenyl)propanoic acid]",IC50,[1],713 nM
same,IC50,[2],> 10000 nM
same,IC50,[3],137 nM
same,IC50,[4],3380 nM
same,IC50,[5],301 nM
same,IC50,[6],> 10000 nM
same,IC50,[7],1290 nM
same,IC50,[8],> 10000 nM
same,IC50,[9],> 10000 nM
same,IC50,[10],> 10000 nM
same,IC50,[11],704 nM
same,IC50,[12],158 nM
same,IC50,[13],520 nM
same,"inhibition of tumor growth, single agent",[14],insufficient in inhibiting tumor growth
same,IC50,[15],9920 nM
same,IC50,[16],> 10000 nM
same,IC50,[17],160 nM
same,IC50,[18],9920 nM
same,IC50,[19],258 nM
